Test system: 317291-083-R-J1-PDC complex spheroid growth
Assay: Anticancer human tumor 317291-083-R-J1-PDC patient-derived soft tissue sarcoma cell line growth inhibition [Asc]
Details: for IC50: curve of first compound; for viability, T/C: stronger effect = lower value; active means viability on the fitted dose curve at most 10% of control; inactive means the rest
Outline: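 Concentration series start at each agent's clinical Cmax, or at 10 microM when none is established, and drop in half-log steps; agents are applied alone or together to complex spheroids built with HUVEC and hMSC.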

[1] = second compound 0.0316 µM, first compound 0.0316 µM
[2] = second compound 0.0316 µM, first compound 0.1 µM
[3] = second compound 0.0316 µM, first compound 0.316 µM
[4] = second compound 0.0316 µM, first compound 1 µM
[5] = second compound 0.1 µM, first compound 0.0316 µM
[6] = second compound 0.1 µM, first compound 0.1 µM
[7] = second compound 0.1 µM, first compound 0.316 µM
[8] = second compound 0.1 µM, first compound 1 µM
[9] = second compound 0.316 µM, first compound 0.0316 µM
[10] = second compound 0.316 µM, first compound 0.1 µM
[11] = second compound 0.316 µM, first compound 0.316 µM
[12] = second compound 0.316 µM, first compound 1 µM
[13] = second compound 1 µM, first compound 0.0316 µM
[14] = second compound 1 µM, first compound 0.1 µM
[15] = second compound 1 µM, first compound 0.316 µM
[16] = second compound 1 µM, first compound 1 µM
[17] = second compound 3.16 µM, first compound 0.0316 µM
[18] = second compound 3.16 µM, first compound 0.1 µM
[19] = second compound 3.16 µM, first compound 0.316 µM
[20] = second compound 3.16 µM, first compound 1 µM
[21] = second compound 10 µM, first compound 0.0316 µM
[22] = second compound 10 µM, first compound 0.1 µM
[23] = second compound 10 µM, first compound 0.316 µM
[24] = second compound 10 µM, first compound 1 µM
[25] = second compound 0.0316 µM, first compound 3.16 µM
[26] = second compound 0.0316 µM, first compound 10 µM
[27] = second compound 0.1 µM, first compound 3.16 µM
[28] = second compound 0.1 µM, first compound 10 µM
[29] = second compound 0.316 µM, first compound 3.16 µM
[30] = second compound 0.316 µM, first compound 10 µM
[31] = second compound 1 µM, first compound 3.16 µM
[32] = second compound 1 µM, first compound 10 µM
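Further: compound exposure lasted seven days after spheroids formed for three days.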
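Wherever viability, T/C is given: 100% = DMSO vehicle control wells.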

CCN1CCN(Cc2ccc(Nc3ncc(F)c(-c4cc(F)c5nc(C)n(C(C)C)c5c4)n3)nc2)CC1 + Cc1c(S(C)(=O)=O)c(-c2cc(F)cc(N3CCN(c4ccc(NS(=O)(=O)c5ccc(NC(CCN6CCC(C(=O)OCCCP(=O)(O)O)CC6)CSc6ccccc6)c(S(=O)(=O)C(F)(F)F)c5)cc4)CC3)c2)c(-c2ccc(Cl)cc2)n1C(C)C
inactive: viability, T/C (second compound 0.0316 µM, first compound 0.00316 µM) 97.4% | viability, T/C (second compound 0.0316 µM, first compound 0.01 µM) 105% | viability, T/C [1] 87% | viability, T/C [2] 87.2% | viability, T/C [3] 70% | viability, T/C [4] 46.8% | viability, T/C (second compound 0.1 µM, first compound 0.00316 µM) 113% | viability, T/C (second compound 0.1 µM, first compound 0.01 µM) 85.7% | viability, T/C [5] 90.4% | viability, T/C [6] 74% | viability, T/C [7] 63.6% | viability, T/C [8] 41% | viability, T/C (second compound 0.316 µM, first compound 0.00316 µM) 94.1% | viability, T/C (second compound 0.316 µM, first compound 0.01 µM) 80.5% | viability, T/C [9] 77.8% | viability, T/C [10] 62.1% | viability, T/C [11] 66.6% | viability, T/C [12] 26.7% | viability, T/C (second compound 1 µM, first compound 0.00316 µM) 87.2% | viability, T/C (second compound 1 µM, first compound 0.01 µM) 88% | viability, T/C [13] 67.8% | viability, T/C [14] 88.2% | viability, T/C [15] 54% | viability, T/C [16] 25.9% | viability, T/C (second compound 3.16 µM, first compound 0.00316 µM) 75.8% | viability, T/C (second compound 3.16 µM, first compound 0.01 µM) 80.5% | viability, T/C [17] 73.5% | viability, T/C [18] 63.7% | viability, T/C [19] 46% | viability, T/C [20] 24.9% | viability, T/C (second compound 10 µM, first compound 0.00316 µM) 82.7% | viability, T/C (second compound 10 µM, first compound 0.01 µM) 90.5% | viability, T/C [21] 96.3% | viability, T/C [22] 78.7% | viability, T/C [23] 54.6% | viability, T/C [24] 25.7%
373 nM: IC50 (second compound 1 µM)
372 nM: IC50 (second compound 10 µM)
242 nM: IC50 (second compound 3.16 µM)
402 nM: IC50 (second compound 0.316 µM)
647 nM: IC50 (second compound 0.1 µM)
871 nM: IC50 (second compound 0.0316 µM)

C#Cc1c(F)ccc2cc(O)cc(-c3ncc4c(N5CC6CCC(C5)N6)nc(OCC56CCCN5CC(F)C6)nc4c3F)c12 (stereo unspecified) + CNC(C)C(=O)NC1CN(S(=O)(=O)c2cccc(S(=O)(=O)N3CCC4CCC(C(=O)NC(c5ccccc5)c5ccccc5)N4C(=O)C(NC(=O)C(C)NC)C3)c2)CCC2CCC(C(=O)NC(c3ccccc3)c3ccccc3)N2C1=O
inactive: viability, T/C (second compound 0.00316 µM, first compound 0.0316 µM) 76.3% | viability, T/C (second compound 0.00316 µM, first compound 0.1 µM) 75.7% | viability, T/C (second compound 0.00316 µM, first compound 0.316 µM) 72.3% | viability, T/C (second compound 0.00316 µM, first compound 1 µM) 84.3% | viability, T/C (second compound 0.00316 µM, first compound 3.16 µM) 87% | viability, T/C (second compound 0.00316 µM, first compound 10 µM) 34.8% | viability, T/C (second compound 0.01 µM, first compound 0.0316 µM) 84.2% | viability, T/C (second compound 0.01 µM, first compound 0.1 µM) 71.6% | viability, T/C (second compound 0.01 µM, first compound 0.316 µM) 57.8% | viability, T/C (second compound 0.01 µM, first compound 1 µM) 81.4% | viability, T/C (second compound 0.01 µM, first compound 3.16 µM) 76% | viability, T/C (second compound 0.01 µM, first compound 10 µM) 44.3% | viability, T/C [1] 67.5% | viability, T/C [2] 66.6% | viability, T/C [3] 59.3% | viability, T/C [4] 63.9% | viability, T/C [25] 58.1% | viability, T/C [26] 23.5% | viability, T/C [5] 54.9% | viability, T/C [6] 55% | viability, T/C [7] 53.3% | viability, T/C [8] 50.8% | viability, T/C [27] 59% | viability, T/C [28] 15.1% | viability, T/C [9] 42.9% | viability, T/C [10] 46.2% | viability, T/C [11] 44.3% | viability, T/C [12] 31.9% | viability, T/C [29] 43.6% | viability, T/C [30] 10.6% | viability, T/C [13] 31.1% | viability, T/C [14] 29% | viability, T/C [15] 29.4% | viability, T/C [16] 24.4% | viability, T/C [31] 26.2% | viability, T/C [32] 8.59%
4120 nM: IC50 (second compound 0.0316 µM)
3610 nM: IC50 (second compound 0.1 µM)
6740 nM: IC50 (second compound 0.00316 µM)
< 31.6 nM: IC50 (second compound 0.316 µM) | IC50 (second compound 1 µM)
8010 nM: IC50 (second compound 0.01 µM)

C=C(F)C(=O)N1CCN(c2nc(OCC3CCCN3C)nc3c2CCN(c2cccc4cccc(Cl)c24)C3)CC1CC#N (stereo unspecified) + Cc1c(S(C)(=O)=O)c(-c2cc(F)cc(N3CCN(c4ccc(NS(=O)(=O)c5ccc(NC(CCN6CCC(C(=O)OCCCP(=O)(O)O)CC6)CSc6ccccc6)c(S(=O)(=O)C(F)(F)F)c5)cc4)CC3)c2)c(-c2ccc(Cl)cc2)n1C(C)C
active: viability, T/C [26] 0.54% | viability, T/C [28] 0.18% | viability, T/C [30] 0.14% | viability, T/C [32] 2.51% | viability, T/C (second compound 3.16 µM, first compound 3.16 µM) 7.37% | viability, T/C (second compound 3.16 µM, first compound 10 µM) 0.24% | viability, T/C (second compound 10 µM, first compound 3.16 µM) 8.59% | viability, T/C (second compound 10 µM, first compound 10 µM) 0.29%
inactive: viability, T/C [1] 105% | viability, T/C [2] 105% | viability, T/C [3] 85.2% | viability, T/C [4] 83.2% | viability, T/C [25] 25.8% | viability, T/C [5] 113% | viability, T/C [6] 97% | viability, T/C [7] 86.2% | viability, T/C [8] 96.7% | viability, T/C [27] 17.6% | viability, T/C [9] 80.8% | viability, T/C [10] 90% | viability, T/C [11] 77.5% | viability, T/C [12] 87.1% | viability, T/C [29] 11.7% | viability, T/C [13] 87.5% | viability, T/C [14] 72.9% | viability, T/C [15] 76.8% | viability, T/C [16] 76.3% | viability, T/C [31] 13.7% | viability, T/C [17] 100% | viability, T/C [18] 69.9% | viability, T/C [19] 74.5% | viability, T/C [20] 58.6% | viability, T/C [21] 96.5% | viability, T/C [22] 99.1% | viability, T/C [23] 96.7% | viability, T/C [24] 77.9%
1970 nM: IC50 (second compound 0.1 µM)
1590 nM: IC50 (second compound 10 µM)
1620 nM: IC50 (second compound 1 µM)
1720 nM: IC50 (second compound 0.316 µM)
1170 nM: IC50 (second compound 3.16 µM)
1920 nM: IC50 (second compound 0.0316 µM)

From PubChem BioAssay AID1963427 (Molecular Pharmacology Branch, DTP, NCI, 2024)
